Data published in ChEMBL document CHEMBL1201862, “PubChem BioAssay data set” (2004).
The source made the active and inactive calls.

Legend:
[1] = A Cell Based Secondary Assay To Explore Cytotoxicity of Compounds that Sensitize Mycobacterium Tuberculosis to Beta-Lactam Antibiotics.; format: functional
[2] = fluconazole-exposed Candida albicans growth modulators – fluorescence, retest, confirmation (AID 2467); format: functional, cell-based
[3] = system: INS1; assay: INS-1E survival protection against cytokine death – cell-based, luminescence, retest, dose response (AID 449756); format: functional; settings: Rattus norvegicus;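 also: cell death triggered by IL-1 beta plus TNF-alpha plus IFN-gamma mixture; protective hits raise ATP signal compared with cytokine alone wells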
[4] = target: T1, Short transient receptor potential channel 4 (Mus musculus, UniProt Q9QUQ5); assay: block of DAMGO-driven TRPC4 calcium entry – cell-based, HEK293 TRPC4/mu-opioid, Fluo-4 calcium, dose response (AID 434942); format: functional;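 also: potency of inhibitors blocking the TRPC4 calcium response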
T1 sequence (Q9QUQ5 whole entry): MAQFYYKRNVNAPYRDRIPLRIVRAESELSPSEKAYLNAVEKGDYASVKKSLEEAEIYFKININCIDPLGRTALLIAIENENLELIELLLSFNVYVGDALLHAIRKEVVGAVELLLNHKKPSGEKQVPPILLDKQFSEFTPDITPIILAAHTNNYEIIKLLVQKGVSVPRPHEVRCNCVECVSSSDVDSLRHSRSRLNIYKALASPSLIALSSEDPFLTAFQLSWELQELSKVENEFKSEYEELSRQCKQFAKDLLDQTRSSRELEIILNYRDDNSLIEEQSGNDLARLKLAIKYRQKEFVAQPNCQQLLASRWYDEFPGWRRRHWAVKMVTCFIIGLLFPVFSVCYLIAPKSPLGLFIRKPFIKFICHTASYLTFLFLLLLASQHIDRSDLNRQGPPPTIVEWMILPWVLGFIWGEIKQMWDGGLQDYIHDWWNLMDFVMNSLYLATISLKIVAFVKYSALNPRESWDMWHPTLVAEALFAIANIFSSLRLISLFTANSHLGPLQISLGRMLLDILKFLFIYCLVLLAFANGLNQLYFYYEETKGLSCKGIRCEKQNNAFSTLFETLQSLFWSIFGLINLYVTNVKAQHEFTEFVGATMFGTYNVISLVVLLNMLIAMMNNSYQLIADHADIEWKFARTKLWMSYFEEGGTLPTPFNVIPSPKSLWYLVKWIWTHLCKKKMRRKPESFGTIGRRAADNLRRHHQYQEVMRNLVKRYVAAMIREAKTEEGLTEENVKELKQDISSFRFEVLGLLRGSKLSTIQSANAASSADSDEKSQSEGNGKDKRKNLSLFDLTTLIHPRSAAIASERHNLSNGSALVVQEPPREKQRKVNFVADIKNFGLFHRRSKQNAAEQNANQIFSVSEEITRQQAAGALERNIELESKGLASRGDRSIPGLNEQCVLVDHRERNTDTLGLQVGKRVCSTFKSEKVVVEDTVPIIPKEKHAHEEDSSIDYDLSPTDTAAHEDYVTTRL

[5] = viability of PTEN-deleted HCT116 cells – cell-based, HCT116 PTEN knockout, dose response (AID 1047); format: functional;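 also: HCT116 colon tumor cells with PTEN knocked out; cells exposed to compound for 60 hours before readout; potency for loss of cell viability measured by luminescence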
[6] = viability of HCT116 lacking mutant beta-catenin – cell-based, human colon tumor, dose response (AID 1045); format: functional;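 also: HCT116 colon tumor cells with beta catenin knocked out; cells exposed to compound for 60 hours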
[7] = Trypanosoma cruzi growth suppression in host cells – NIH3T3 host cells, beta-gal luminescence, confirmation (AID 2044); format: functional, cell-based;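 also: intracellular parasites grown in NIH/3T3 mouse fibroblasts as host cells; luminescent beta-galactosidase reporter signal from transgenic T. cruzi replicating inside host cells; inhibitors lower the luminescence signal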
[8] = NIH-3T3 fibroblast cytotoxicity, dose response, cytotoxicity control, cell-based, fluorescence, Alamar Blue, secondary assay (AID 2327); format: functional;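 also: NIH-3T3 mouse fibroblasts cultured with fluconazole at 8 µg/mL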
[9] = target: T2, Heat shock factor protein 1 (Mus musculus, UniProt P38532); assay: enhancement of HSF1-driven luciferase signal – cell-based, NIH3T3, luminescence, dose retest, confirmation (AID 435004); format: functional;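 also: stress induced by proteasome inhibitor MG132 added 30 min after compound; luciferase reporter driven by HSF1 response element in NIH3T3 cells; actives raise luminescence as potentiators of the MG132 stress response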
T2 sequence (P38532 whole entry): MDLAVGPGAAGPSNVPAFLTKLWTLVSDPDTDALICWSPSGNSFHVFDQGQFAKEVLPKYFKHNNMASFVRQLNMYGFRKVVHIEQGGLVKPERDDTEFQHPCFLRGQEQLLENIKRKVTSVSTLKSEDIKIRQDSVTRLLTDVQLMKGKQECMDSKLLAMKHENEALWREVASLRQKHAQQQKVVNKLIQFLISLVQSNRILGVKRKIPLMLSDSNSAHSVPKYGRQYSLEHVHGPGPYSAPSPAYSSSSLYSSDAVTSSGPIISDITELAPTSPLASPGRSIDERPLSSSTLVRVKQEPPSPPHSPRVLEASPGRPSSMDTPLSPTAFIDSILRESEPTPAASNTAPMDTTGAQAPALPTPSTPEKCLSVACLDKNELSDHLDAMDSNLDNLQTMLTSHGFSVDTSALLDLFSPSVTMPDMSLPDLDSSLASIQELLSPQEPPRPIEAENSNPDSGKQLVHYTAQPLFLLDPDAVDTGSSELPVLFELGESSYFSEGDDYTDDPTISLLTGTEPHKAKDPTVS

[10] = NIH3T3 cell viability loss – ATP luminescence, mouse fibroblasts, counter-screen, dose response (AID 2010); format: functional, cell-based;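 also: cells exposed to compound for about 90 hours before reading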
[11] = HEK-293T cell viability reduction – luminescence, B-cell screen hits, cytotoxicity control for BCR NF-kB inhibitor project, dose response (AID 489021); format: functional, cell-based;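 also: HEK-293T cells carrying an NF-kB luciferase reporter; cells exposed to compound for about 14 hours before viability readout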
[12] = system: Streptococcus; assay: GAS UMAA2166 growth inhibition – luminescence, BacTiterGlo, counter-screen for streptokinase expression inhibitor project, dose response (AID 1915); format: functional, organism-based;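 also: potency for reduction of bacterial viability or growth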
[13] = target: T3, Estrogen receptor (Homo sapiens, UniProt P03372);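 also: potency for inhibiting coactivator peptide recruitment to the receptor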
T3 sequence (P03372 whole entry): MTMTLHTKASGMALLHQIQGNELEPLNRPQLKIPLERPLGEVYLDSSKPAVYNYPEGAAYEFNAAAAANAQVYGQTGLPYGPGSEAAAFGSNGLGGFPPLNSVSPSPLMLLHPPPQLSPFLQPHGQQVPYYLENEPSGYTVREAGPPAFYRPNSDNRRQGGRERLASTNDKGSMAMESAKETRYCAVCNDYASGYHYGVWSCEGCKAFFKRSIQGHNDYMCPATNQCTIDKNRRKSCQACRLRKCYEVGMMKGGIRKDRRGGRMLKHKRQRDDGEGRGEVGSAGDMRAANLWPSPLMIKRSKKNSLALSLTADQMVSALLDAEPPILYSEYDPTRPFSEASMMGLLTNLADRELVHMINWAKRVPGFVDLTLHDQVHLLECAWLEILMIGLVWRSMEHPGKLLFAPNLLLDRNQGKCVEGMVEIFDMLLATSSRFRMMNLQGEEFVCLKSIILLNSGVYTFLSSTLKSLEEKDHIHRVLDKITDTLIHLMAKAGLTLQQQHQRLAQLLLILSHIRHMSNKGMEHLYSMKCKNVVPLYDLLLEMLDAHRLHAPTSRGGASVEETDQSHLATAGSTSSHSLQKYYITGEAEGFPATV

[14] = system: Streptococcus sp. 'group A'; assay: Streptococcus pyogenes SK(-)GAS viability under kanamycin – luminescence, BacTiterGlo, confirmation, counter-screen for streptokinase expression inhibitor project, dose response (AID 1900); format: functional, organism-based
[15] = target: T4, Streptokinase A (Streptococcus pyogenes serotype M1, UniProt P10520); assay: viability-normalized secreted streptokinase activity reduction – plasminogen activation absorbance, OD405, dose response (AID 1914); format: functional, Streptococcus pyogenes M1 GAS;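 also: secreted streptokinase activity via plasminogen activation per viability signal from cell pellet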
T4 sequence (P10520 whole entry): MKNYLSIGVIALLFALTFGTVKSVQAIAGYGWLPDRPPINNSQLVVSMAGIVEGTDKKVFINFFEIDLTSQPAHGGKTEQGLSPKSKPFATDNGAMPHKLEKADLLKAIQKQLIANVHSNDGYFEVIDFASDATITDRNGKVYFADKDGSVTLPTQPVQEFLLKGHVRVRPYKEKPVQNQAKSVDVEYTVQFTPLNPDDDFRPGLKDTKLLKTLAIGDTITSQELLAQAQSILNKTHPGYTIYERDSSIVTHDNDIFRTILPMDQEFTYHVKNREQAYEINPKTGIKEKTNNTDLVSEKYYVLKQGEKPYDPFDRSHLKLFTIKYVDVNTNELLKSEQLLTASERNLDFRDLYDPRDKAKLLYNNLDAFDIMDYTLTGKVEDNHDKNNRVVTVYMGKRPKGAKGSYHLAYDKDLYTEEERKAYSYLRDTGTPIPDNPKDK

[16] = target: Genome polyprotein (dengue virus type 2, UniProt P29990); assay: flavivirus cap methylation enzyme inhibition – biochemical, confirmation dose response, primary screen (AID 588689); format: functional
[17] = target: Induced myeloid leukemia cell differentiation protein Mcl-1 (Homo sapiens, UniProt Q07820); format: functional
[18] = target: NAD-dependent protein deacylase sirtuin-5, mitochondrial (Homo sapiens, UniProt Q9NXA8); assay: sirtuin-5 deacylation blockers, concentration series – biochemical, fluorescence imaging, cherry-pick, set 5, dose response (AID 720591);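 also: desuccinylation of succinyl peptide AMC substrate read as fluorescence after trypsin release; potency of inhibitors that lower fluorescence and may act on trypsin instead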
[19] = target: T5, Rac GTPase-activating protein 1 (Homo sapiens, UniProt Q9H0H5); assay: blockers of MgcRacGAP-driven Rac1 GTP hydrolysis – biochemical, ADP Hunter fluorescence, primary and confirmatory, confirmation (AID 624330); format: functional
T5 sequence (Q9H0H5 whole entry): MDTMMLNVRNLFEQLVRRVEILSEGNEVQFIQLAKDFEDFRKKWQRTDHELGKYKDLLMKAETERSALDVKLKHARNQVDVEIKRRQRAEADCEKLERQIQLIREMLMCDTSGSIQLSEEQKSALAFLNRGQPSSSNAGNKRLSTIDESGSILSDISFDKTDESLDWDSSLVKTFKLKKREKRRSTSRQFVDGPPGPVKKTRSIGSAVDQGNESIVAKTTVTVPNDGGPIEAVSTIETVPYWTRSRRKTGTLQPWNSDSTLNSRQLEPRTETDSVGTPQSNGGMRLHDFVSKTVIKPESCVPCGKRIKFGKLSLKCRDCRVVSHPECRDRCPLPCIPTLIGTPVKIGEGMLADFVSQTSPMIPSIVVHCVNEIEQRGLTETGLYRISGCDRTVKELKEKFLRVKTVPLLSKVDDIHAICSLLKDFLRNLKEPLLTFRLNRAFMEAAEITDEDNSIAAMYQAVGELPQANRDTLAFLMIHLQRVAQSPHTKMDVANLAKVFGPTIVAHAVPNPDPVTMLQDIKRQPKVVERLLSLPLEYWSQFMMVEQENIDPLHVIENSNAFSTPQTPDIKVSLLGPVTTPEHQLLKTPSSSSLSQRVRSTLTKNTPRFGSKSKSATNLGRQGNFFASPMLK

[20] = HIV-1 AD8 envelope cell-cell fusion blockers – cherry-pick, dose response (AID 652062); format: functional, cell-based;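 also: luciferase signal from cell-cell fusion driven by HIV-1 clade B AD8 Env; potency is for inhibitors of fusion seen as a drop in luminescence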
[21] = blockers of HIV-1 ZM109 envelope-driven cell-cell fusion – HeLa effector, CEM target cells, luciferase, cherry-pick, dose response (AID 652058); format: functional, cell-based;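 also: luciferase signal from HIV-1 Env mediated cell-cell fusion of effector and target cells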
[22] = off-target signal loss in HeLa-CEM21 co-culture – HeLa F-luc CTL cells, cherry-picked, counter-screen for HIV-1 Env fusion inhibitor project, dose response (AID 652040); format: functional, cell-based;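 also: potency for signal decrease marking cytotoxic or nonspecific inhibition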
[23] = viability loss in CEM21 cells – cell-based, CellTiter-Glo luminescence, cherry-picked, cytotoxicity control for viral fusion inhibitor project, dose response (AID 652042); format: functional;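 also: potency for signal decrease meaning cytotoxicity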
[24] = blockers of HIV-1 envelope-mediated cell-cell fusion – cherry-pick, dose response (AID 652057); format: functional, cell-based
[25] = target: Large T antigen (Simian virus 40, UniProt P03070); format: functional, Betapolyomavirus macacae;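 also: Confirmatory-stage PubChem screen for compounds that inhibit SV40 T antigen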
[26] = target: Estrogen receptor beta (Homo sapiens, UniProt Q92731);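 also: recombinant ER-beta bound to coactivator SRC1 peptide in presence of estradiol agonist; inhibitors block coactivator peptide binding and lower the FRET signal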
Chain of Estrogen receptor beta (Q92731 whole entry): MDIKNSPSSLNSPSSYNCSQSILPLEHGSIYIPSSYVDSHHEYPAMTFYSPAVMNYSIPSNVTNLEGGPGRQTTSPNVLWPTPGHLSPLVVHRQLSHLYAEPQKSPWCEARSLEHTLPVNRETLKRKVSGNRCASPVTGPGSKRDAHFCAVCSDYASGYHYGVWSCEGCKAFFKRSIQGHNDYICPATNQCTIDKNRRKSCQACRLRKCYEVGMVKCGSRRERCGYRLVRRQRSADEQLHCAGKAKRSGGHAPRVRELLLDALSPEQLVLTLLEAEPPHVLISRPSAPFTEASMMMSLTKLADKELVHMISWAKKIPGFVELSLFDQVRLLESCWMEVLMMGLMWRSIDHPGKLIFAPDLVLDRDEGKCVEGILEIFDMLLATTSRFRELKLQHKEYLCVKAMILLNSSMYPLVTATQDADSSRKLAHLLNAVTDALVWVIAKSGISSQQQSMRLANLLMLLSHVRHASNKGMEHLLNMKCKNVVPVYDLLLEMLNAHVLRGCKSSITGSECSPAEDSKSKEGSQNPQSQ

Chain of NAD-dependent protein deacylase sirtuin-5, mitochondrial (Q9NXA8 whole entry): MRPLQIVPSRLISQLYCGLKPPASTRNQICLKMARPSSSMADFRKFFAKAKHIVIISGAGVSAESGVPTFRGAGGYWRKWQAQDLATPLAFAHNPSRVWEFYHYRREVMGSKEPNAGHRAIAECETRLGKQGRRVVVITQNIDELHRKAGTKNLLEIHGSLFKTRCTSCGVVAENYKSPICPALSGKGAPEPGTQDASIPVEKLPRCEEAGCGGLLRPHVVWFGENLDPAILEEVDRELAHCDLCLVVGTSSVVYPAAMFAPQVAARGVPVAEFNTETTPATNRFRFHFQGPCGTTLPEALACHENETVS
Chain of Induced myeloid leukemia cell differentiation protein Mcl-1 (Q07820 whole entry): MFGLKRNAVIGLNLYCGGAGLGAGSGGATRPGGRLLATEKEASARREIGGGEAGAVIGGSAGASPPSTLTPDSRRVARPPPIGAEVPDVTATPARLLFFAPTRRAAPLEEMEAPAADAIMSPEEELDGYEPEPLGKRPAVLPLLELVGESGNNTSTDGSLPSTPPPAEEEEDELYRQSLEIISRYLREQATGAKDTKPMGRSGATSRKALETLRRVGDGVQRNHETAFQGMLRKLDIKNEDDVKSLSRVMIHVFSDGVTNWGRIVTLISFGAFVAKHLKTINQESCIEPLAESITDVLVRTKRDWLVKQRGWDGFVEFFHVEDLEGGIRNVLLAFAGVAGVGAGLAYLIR
Chain of Genome polyprotein (P29990 2492-3391 limits assumed): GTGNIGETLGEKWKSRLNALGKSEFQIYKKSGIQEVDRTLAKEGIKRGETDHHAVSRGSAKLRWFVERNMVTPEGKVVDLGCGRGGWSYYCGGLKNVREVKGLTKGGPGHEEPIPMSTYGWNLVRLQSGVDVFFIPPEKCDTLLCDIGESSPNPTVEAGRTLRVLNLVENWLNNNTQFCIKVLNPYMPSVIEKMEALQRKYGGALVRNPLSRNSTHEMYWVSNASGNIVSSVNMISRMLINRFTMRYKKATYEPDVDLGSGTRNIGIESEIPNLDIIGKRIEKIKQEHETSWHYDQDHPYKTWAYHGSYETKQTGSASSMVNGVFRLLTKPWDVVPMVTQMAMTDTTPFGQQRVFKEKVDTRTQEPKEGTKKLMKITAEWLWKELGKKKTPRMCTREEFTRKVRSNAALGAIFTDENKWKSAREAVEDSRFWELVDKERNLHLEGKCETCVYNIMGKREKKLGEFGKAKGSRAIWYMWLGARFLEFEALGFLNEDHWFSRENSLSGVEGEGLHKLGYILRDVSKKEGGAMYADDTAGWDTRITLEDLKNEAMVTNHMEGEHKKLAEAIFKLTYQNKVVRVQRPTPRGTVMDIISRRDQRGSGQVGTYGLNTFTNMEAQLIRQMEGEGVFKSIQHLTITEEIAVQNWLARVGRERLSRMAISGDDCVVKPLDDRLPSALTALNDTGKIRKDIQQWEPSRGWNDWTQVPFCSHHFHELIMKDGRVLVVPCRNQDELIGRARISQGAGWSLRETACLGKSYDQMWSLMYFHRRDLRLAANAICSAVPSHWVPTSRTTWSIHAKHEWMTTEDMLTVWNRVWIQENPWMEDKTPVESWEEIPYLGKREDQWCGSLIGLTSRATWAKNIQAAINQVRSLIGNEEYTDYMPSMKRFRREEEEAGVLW
Chain of Large T antigen (P03070 whole entry): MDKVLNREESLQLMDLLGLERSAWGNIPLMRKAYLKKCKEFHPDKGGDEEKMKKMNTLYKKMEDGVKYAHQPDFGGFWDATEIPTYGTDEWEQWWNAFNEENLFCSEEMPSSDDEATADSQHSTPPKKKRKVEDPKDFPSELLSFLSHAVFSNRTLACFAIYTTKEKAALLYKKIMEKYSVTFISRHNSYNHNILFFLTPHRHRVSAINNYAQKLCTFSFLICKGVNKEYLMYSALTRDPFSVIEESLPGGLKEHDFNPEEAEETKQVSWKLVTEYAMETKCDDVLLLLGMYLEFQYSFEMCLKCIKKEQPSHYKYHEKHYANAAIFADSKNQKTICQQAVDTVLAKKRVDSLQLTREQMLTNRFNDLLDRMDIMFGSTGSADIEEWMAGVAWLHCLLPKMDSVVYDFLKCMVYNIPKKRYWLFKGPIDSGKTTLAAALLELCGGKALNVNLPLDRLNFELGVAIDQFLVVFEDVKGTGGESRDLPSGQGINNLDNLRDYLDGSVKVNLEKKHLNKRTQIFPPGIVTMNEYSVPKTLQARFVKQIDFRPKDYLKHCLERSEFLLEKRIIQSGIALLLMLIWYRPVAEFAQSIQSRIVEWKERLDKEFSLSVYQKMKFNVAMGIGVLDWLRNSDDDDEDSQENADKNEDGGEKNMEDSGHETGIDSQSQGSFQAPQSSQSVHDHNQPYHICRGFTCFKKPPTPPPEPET

Nc1c(C(=O)N2CCCC2)sc2nc3c(cc12)CCCCCC3
CC50 [1]: > 40 µM (active)

CC#CC[N+](C)(C)CCCCCCCCCCCC
EC50 [2]: 2.85 µM (active)
AC50 [3]: 1.85 µM (active)
CC50 [1]: > 40 µM (active)
EC50 [4]: 1.5 µM (active)
EC50 [5]: 4.9 µM (active)
EC50 [6]: 5.82 µM (active)
EC50 [7]: 1.05 µM (active)
EC50 [8]: > 150 µM (inactive)
EC50 [9]: > 260 µM (inactive)
EC50 [10]: > 30 µM (not active)

Cc1cccc(NC(=O)Cn2c(=O)n(Cc3ccccc3)c(=O)c3c(C)c(C)sc32)c1
CC50 [1]: > 40 µM (active)

CCOC(=O)Cc1csc(NC(=S)NC(=O)c2ccc(C)cc2)n1
IC50 [11]: > 80 µM (inactive)

Cc1nn(Cc2ccc(C(=O)Nc3nc4c(C)cccc4s3)o2)c(C)c1Br
EC50 [12]: 8.54 µM (active)
IC50 [13]: > 50 µM (not active)
EC50 [14]: 4.94 µM (active)
EC50 [15]: 5.58 µM (active)

COC(=O)C1=C(C(=O)OC)C(c2cc(Cl)ccc2O)c2sc(O)nc2S1 (stereo not given)
IC50 [16]: > 100 µM (active)
IC50 [17]: 4.4 µM (active)

CCOC(=O)c1cc(-c2ccc(C)cc2)n(CCC(=O)N2CCN(c3ccccn3)CC2)c1C
CC50 [1]: > 40 µM (active)

COc1ccc(C(=O)Nc2cc(O)nc3ncnn23)cc1
AC50 [18]: 8.75 µM (active)

C=CCc1cc(OC)ccc1OCCN1CC(C)OC(C)C1 (stereo not given)
AC50 [18]: > 30 µM (inactive)
IC50 [19]: 70.5 µM (active)

Cc1cc(C)cc(OCc2nnc(SCC(=O)c3ccccc3)o2)c1
IC50 [11]: > 80 µM (inactive)

COc1ccccc1CNC(=O)C1CCC(CNS(=O)(=O)c2ccc(F)cc2)CC1 (stereo not given)
AC50 [18]: > 30 µM (inactive)

COc1cc(OC)nc(Nc2nc(C(N)COCc3ccccc3)cs2)n1 (stereo not given)
AC50 [20]: 5.29 µM (active)
AC50 [21]: 4.17 µM (active)
AC50 [22]: 4.69 µM (active)
AC50 [23]: 28.3 µM (active)
AC50 [24]: 3.75 µM (active)

Cc1ccc(-c2ccc3c(c2)O[C@H](CN(C)Cc2cccnc2)[C@@H](C)CN([C@H](C)CO)S3(=O)=O)cc1
AC50 [20]: 23.8 µM (active)
AC50 [23]: 13.7 µM (active)
AC50 [24]: 27 µM (active)

O=C(c1[nH]c(C(F)(F)F)nc1-c1ccccc1)N1CCCN(Cc2ccc(F)cc2)CC1
AC50 [18]: > 30 µM (inactive)

Oc1ccc(/C=N/c2ccc(N3CCOCC3)cc2)c(O)c1
IC50 [13]: 30.4 µM (not active)
IC50 [25]: 12.9 µM (active)
IC50 [26]: 14.4 µM (active)

COc1cc2c(=O)n(Cc3ccco3)c(=O)n(CC(=O)c3cccc(Br)c3)c2cc1OC
CC50 [1]: 22.2 µM (active)
EC50 [5]: 9.13 µM (active)
EC50 [6]: 9.71 µM (active)
